Values after ≈ are worked out from the molar mass of the structure shown.
Legend:
Plasmodium falciparum [1] = experiment: Antimalarial activity against […] Plasmodium falciparum TM90C2A by [3H]hypoxanthine incorporation assay in presence of human serum; assay type: functional, organism-based
[2] = AUC (0 to infinity) in Swiss outbred mouse plasma at 10 mg/kg, po; assay type: ADME, organism-based; set-up: time infinity, dose 10 mg/kg, route oral
Plasmodium falciparum [3] = experiment: Antimalarial activity against chloroquine and pyrimethamine-resistant Plasmodium falciparum K1 by [3H]hypoxanthine incorporation assay in presence of human serum; assay type: functional, organism-based
Plasmodium falciparum [4] = experiment: Antimalarial activity against chloroquine-resistant Plasmodium falciparum Dd2 by [3H]hypoxanthine incorporation assay in presence of human serum; assay type: functional, organism-based
Mus musculus [5] = experiment: AUC (0 to 10 hrs) in human RBC engrafted NOD-SCID IL-2Rgamma-null mouse at 5.7 mg/kg, po; assay type: ADME, organism-based, Plasma; set-up: time < 10 hr, dose 5.7 mg/kg, route oral; conditions: in vivo
[6] = Cmax in human RBC engrafted NOD-SCID IL-2Rgamma-null mouse infected with Plasmodium falciparum 3D7 0087/N9 at 5.7 mg/kg, po; assay type: ADME, organism-based; set-up: dose 5.7 mg/kg, route oral; conditions: in vivo
[7] = Oral bioavailability in Sprague-Dawley rat at 2 mg/kg; assay type: ADME, organism-based; conditions: in vivo
[8] = Cmax in Swiss outbred mouse at 10 mg/kg, po; assay type: ADME, organism-based; set-up: dose 10 mg/kg, route oral; conditions: in vivo
Plasma [9] = experiment: Plasma protein binding in human by chromatographic method; assay type: ADME, cell-free
Mus musculus [10] = experiment: AUC (0 to 48 hrs) in Swiss outbred mouse plasma at 50 mg/kg, po; assay type: ADME, organism-based; set-up: time < 48 hr, dose 50 mg/kg, route oral; conditions: in vivo
in vivo [11] = conditions: NOD-SCID IL-2Rgamma-null, mouse, po, 5.7 mg/kg
[12] = Volume of distribution in Sprague-Dawley rat at 4.5 mg/kg, iv; assay type: ADME, organism-based; set-up: dose 4.5 mg/kg, route intravenous; conditions: in vivo
[13] = AUC (0 to infinity) in Sprague-Dawley rat at 2 mg/kg, po; assay type: ADME, organism-based; set-up: time infinity, dose 2 mg/kg, route oral; conditions: plasma
[14] = Terminal elimination half life in Sprague-Dawley rat at 2 mg/kg, po; assay type: ADME, organism-based; set-up: dose 2 mg/kg, route oral; conditions: in vivo, read-out: beta t1/2 (converted)
[15] = Terminal elimination half life in Swiss outbred mouse at 2 mg/kg, po; assay type: ADME, organism-based; set-up: dose 2 mg/kg, route oral; conditions: in vivo, read-out: beta t1/2 (converted)
[16] = Cmax in Swiss outbred mouse at 2 mg/kg, po; assay type: ADME, organism-based; set-up: dose 2 mg/kg, route oral; conditions: in vivo
Plasmodium falciparum [17] = experiment: Antimalarial activity against Plasmodium falciparum 3D7 by [3H]hypoxanthine incorporation assay in presence of albumax; assay type: functional, organism-based
[18] = Terminal elimination half life in Sprague-Dawley rat at 4.5 mg/kg, iv; assay type: ADME, organism-based; set-up: dose 4.5 mg/kg, route intravenous; conditions: in vivo, read-out: beta t1/2 (converted)
[19] = Aqueous solubility of the compound at pH 6.5; assay type: physicochemical
Mus musculus [20] = experiment: Time plasma concentration remained above 1 uM in Swiss outbred mouse plasma at 2 mg/kg, po; assay type: ADME, organism-based; set-up: dose 2 mg/kg, route oral; conditions: in vivo
[21] = Inhibition of Plasmodium berghei C-terminal hexa-His tagged DHODH expressed in Escherichia coli by DCIP reduction assay
Mus musculus [22] = experiment: Time plasma concentration remained above 1 uM in Swiss outbred mouse plasma at 10 mg/kg, po; assay type: ADME, organism-based; set-up: dose 10 mg/kg, route oral; conditions: in vivo
[23] = Terminal elimination half life in Swiss outbred mouse at 10 mg/kg, po; assay type: ADME, organism-based; set-up: dose 10 mg/kg, route oral; conditions: in vivo, read-out: beta t1/2 (converted)
[24] = Oral bioavailability in Sprague-Dawley rat at 21.2 mg/kg; assay type: ADME, organism-based; conditions: in vivo
[25] = Clearance in Sprague-Dawley rat at 1 mg/kg, iv; assay type: ADME, organism-based; set-up: dose 1 mg/kg, route intravenous; conditions: in vivo
in vivo [26] = conditions: Swiss outbred, mouse, po, 0.4 mg/kg
[27] = AUC (0 to infinity) in Swiss outbred mouse plasma at 0.4 mg/kg, po; assay type: ADME, organism-based; set-up: time infinity, dose 0.4 mg/kg, route oral
[28] = Plasma protein binding in Sprague-Dawley rat at 2 to 21.2 mg/kg, po; assay type: ADME, organism-based; set-up: dose 2-21.2 mg/kg, route oral; conditions: read-out: PPB (converted)
[29] = Terminal elimination half life in Swiss outbred mouse at 0.4 mg/kg, po; assay type: ADME, organism-based; set-up: dose 0.4 mg/kg, route oral; conditions: in vivo, read-out: beta t1/2 (converted)
Plasma [30] = experiment: Plasma protein binding in human by ultracentrifugation method; assay type: ADME, cell-free
in vivo [31] = conditions: Sprague-Dawley, rat, po, 2 mg/kg
Mus musculus [32] = experiment: Time plasma concentration remained above 1 uM in Swiss outbred mouse plasma at 0.4 mg/kg, po; assay type: ADME, organism-based; set-up: dose 0.4 mg/kg, route oral; conditions: in vivo
in vivo [33] = conditions: Sprague-Dawley, rat, po, 21.2 mg/kg
in vivo [34] = conditions: NOD-SCID IL-2Rgamma-null, mouse, po, 5.7 mg/kg; remark: listed apart in the source
[35] = Plasma protein binding in Swiss outbred mouse by ultracentrifugation; conditions: read-out: PPB (converted)
L1210 = experiment: Cytotoxicity against mouse L1210 cells; assay type: cell-based
Liver = experiment: Intrinsic clearance in mouse liver microsomes; assay type: ADME, Microsome
[36] = molecular target: Dihydroorotate dehydrogenase (quinone), mitochondrial (Homo sapiens, UniProt Q02127)
Sequence of Dihydroorotate dehydrogenase (quinone), mitochondrial (Q02127 whole entry): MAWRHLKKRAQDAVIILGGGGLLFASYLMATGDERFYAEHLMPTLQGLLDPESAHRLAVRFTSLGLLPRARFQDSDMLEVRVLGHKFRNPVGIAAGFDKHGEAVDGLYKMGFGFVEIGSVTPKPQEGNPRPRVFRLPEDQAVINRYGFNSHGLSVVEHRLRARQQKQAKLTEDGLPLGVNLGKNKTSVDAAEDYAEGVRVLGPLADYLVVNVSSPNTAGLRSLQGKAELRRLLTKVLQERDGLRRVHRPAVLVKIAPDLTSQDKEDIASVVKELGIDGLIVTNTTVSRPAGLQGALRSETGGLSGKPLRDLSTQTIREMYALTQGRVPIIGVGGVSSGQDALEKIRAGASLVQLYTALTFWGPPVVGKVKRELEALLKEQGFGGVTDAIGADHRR
Description: Inhibition of human C-terminal hexa-His tagged DHODH expressed in Escherichia coli by DCIP reduction assay

HepG2 = experiment: Cytotoxicity against human HepG2 cells; assay type: cell-based
[37] = Terminal elimination half life in Sprague-Dawley rat at 1 mg/kg, iv; assay type: ADME, organism-based; set-up: dose 1 mg/kg, route intravenous; conditions: in vivo, read-out: beta t1/2 (converted)
Plasmodium falciparum [38] = experiment: Antimalarial activity against Plasmodium falciparum 3D7 by [3H]hypoxanthine incorporation assay in presence of human serum; assay type: functional, organism-based
Plasmodium falciparum [39] = experiment: Antimalarial activity against drug-sensitive Plasmodium falciparum D6 by [3H]hypoxanthine incorporation assay in presence of human serum; assay type: functional, organism-based
[40] = Volume of distribution in Sprague-Dawley rat at 1 mg/kg, iv; assay type: ADME, organism-based; set-up: dose 1 mg/kg, route intravenous; conditions: in vivo
[41] = AUC (0 to infinity) in Sprague-Dawley rat at 21.2 mg/kg, po; assay type: ADME, organism-based; set-up: time infinity, dose 21.2 mg/kg, route oral; conditions: plasma
Plasmodium falciparum [42] = experiment: Antimalarial activity against drug-sensitive Plasmodium falciparum HB3 by [3H]hypoxanthine incorporation assay in presence of human serum; assay type: functional, organism-based
in vivo [43] = conditions: Swiss outbred, mouse, po, 10 mg/kg
Liver microsomes = experiment: Intrinsic clearance in human liver microsomes; assay type: ADME, Microsome
[44] = AUC (0 to infinity) in Swiss outbred mouse plasma at 2 mg/kg, po; assay type: ADME, organism-based; set-up: time infinity, dose 2 mg/kg, route oral
[45] = molecular target: T1, Dihydroorotate dehydrogenase (Plasmodium falciparum, UniProt Q54A96)
T1 sequence (Q54A96 whole entry): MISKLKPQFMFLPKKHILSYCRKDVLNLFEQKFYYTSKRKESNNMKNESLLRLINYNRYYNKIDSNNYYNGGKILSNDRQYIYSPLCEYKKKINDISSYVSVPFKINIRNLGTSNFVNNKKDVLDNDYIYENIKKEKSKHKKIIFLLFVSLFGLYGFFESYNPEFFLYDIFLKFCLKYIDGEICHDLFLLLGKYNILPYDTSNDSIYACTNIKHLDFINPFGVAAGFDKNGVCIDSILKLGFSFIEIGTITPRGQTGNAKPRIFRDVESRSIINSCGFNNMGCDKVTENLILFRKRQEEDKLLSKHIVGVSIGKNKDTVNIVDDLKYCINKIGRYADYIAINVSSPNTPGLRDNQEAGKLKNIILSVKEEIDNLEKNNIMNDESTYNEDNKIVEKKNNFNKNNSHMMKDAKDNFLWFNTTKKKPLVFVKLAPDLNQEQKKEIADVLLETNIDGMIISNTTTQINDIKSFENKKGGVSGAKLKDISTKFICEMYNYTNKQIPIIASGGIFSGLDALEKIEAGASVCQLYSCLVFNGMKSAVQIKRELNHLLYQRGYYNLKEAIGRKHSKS
Description: Inhibition of Plasmodium falciparum C-terminal hexa-His tagged DHODH expressed in Escherichia coli by DCIP reduction assay

SMILES: Cc1cc(Nc2ccc(C(F)(F)F)cc2)n2nc(C(C)(F)F)nc2n1
- EC50 (Plasmodium falciparum [1]): 0.0079 µM
- AUC(0-inf) [2]: 70.1 µM·h
- EC50 (Plasmodium falciparum [3]): 0.016 µM
- EC50 (Plasmodium falciparum [4]): 0.013 µM
- AUC (Mus musculus [5]): 2521 µM·min
- Cmax [6]: 6.3 µM
- bioavailability [7]: 97%
- Cmax [8]: 9.86 µM
- PPB (Plasma [9]): 90.4%
- AUC (Mus musculus [10]): 14815 µM·min
- Tmax (in vivo [11]): 2.7 h
- Vd [12]: 2.9 L/kg
- AUC(0-inf) [13]: 3.88 µM·h
- half-life [14]: 6 h
- half-life [15]: 1.9 h
- Cmax [16]: 1.85 µM
- EC50 (Plasmodium falciparum [17]): 0.0062 µM
- half-life [18]: 3.8 h
- solubility [19]: 70 µM (≈ 25 µg/mL)
- Time (Mus musculus [20]): 6 h
- IC50 [21]: 2.4 µM
- Time (Mus musculus [22]): 14 h
- half-life [23]: 1.6 h
- bioavailability [24]: > 100%
- clearance [25]: 1.39 L/h/kg
- Tmax (in vivo [26]): 0.5 h
- AUC(0-inf) [27]: 0.667 µM·h
- fraction unbound [28]: 0.058
- half-life [29]: 2.1 h
- PPB (Plasma [30]): 98.8%
- Tmax (in vivo [31]): 1 h
- Time (Mus musculus [32]): 0 h
- Tmax (in vivo [33]): 3.25 h
- Tmax (in vivo [34]): 1.7 h
- fraction unbound [35]: 0.026
- EC50 (L1210): > 50 µM
- Intrinsic clearance (Liver): 10.1 µL/min/mg
- IC50 [36]: > 100 µM
- EC50 (HepG2): > 50 µM
- half-life [37]: 6.1 h
- EC50 (Plasmodium falciparum [38]): 0.01 µM
- EC50 (Plasmodium falciparum [39]): 0.012 µM
- Vd [40]: 3.3 L/kg
- AUC(0-inf) [41]: 342 µM·h
- EC50 (Plasmodium falciparum [42]): 0.0079 µM
- Tmax (in vivo [43]): 4 h
- Intrinsic clearance (Liver microsomes): < 5 µL/min/mg
- AUC(0-inf) [44]: 9.48 µM·h
- IC50 [45]: 0.038 µM

Source: ChEMBL document CHEMBL1955725, “Structure-guided lead optimization of triazolopyrimidine-ring substituents identifies potent Plasmodium falciparum dihydroorotate dehydrogenase inhibitors with clinical candidate potential” (J Med Chem, 2011)
